Experimental data from ChEMBL document CHEMBL1201862, “PubChem BioAssay data set” (2004).
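Protocol summary: plate cells (96-well), add compound at 5 concentrations, incubate 48 h, interpolate endpoints linearly. GI50 = concentration required for 50% inhibition of growth.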 Calls of active or inactive are those of the source. Cut-off read from the data, not from the text of the source: active = GI50 up to about 1.1 µM and inactive = higher.

Key:
Assay in all cases: NCI-60 cell line screen, 48 h
SNB-19 = system: SNB-19
HCT-15 = system: HCT-15
786-0 = system: 786-0
CAKI-1 = system: CAKI-1
NCI-H460 = system: NCI-H460
MDA-MB-435 = system: MDA-MB-435
SF-295 = system: SF-295
SK-MEL-2 = system: SK-MEL-2
IGROV-1 = system: IGROV-1
ACHN = system: ACHN
MCF7 = system: MCF7
OVCAR-3 = system: OVCAR-3
SK-MEL-28 = system: SK-MEL-28
T47D = system: T47D
HL-60 = system: HL-60
TK-10 = system: TK-10
UO-31 = system: UO-31
NCI-H226 = system: NCI-H226
OVCAR-5 = system: OVCAR-5
BT-549 = system: BT-549
KM12 = system: KM12
SW-620 = system: SW-620
HT-29 = system: HT-29
HOP-62 = system: HOP-62
SN12C = system: SN12C
A549 = system: A549
HOP-92 = system: HOP-92
SNB-75 = system: SNB-75
NCI/ADR-RES = system: NCI/ADR-RES
M14 = system: M14
HCC 2998 = system: HCC 2998
HCT-116 = system: HCT-116
OVCAR-8 = system: OVCAR-8
SF-539 = system: SF-539
EKVX = system: EKVX
UACC-257 = system: UACC-257
MDA-MB-231 = system: MDA-MB-231
OVCAR-4 = system: OVCAR-4
RXF 393 = system: RXF 393
SK-MEL-5 = system: SK-MEL-5
SF-268 = system: SF-268
A498 = system: A498
MDA-N = system: MDA-N
SK-OV-3 = system: SK-OV-3
COLO 205 = system: COLO 205
DU-145 = system: DU-145
U-251 = system: U-251
NCI-H23 = system: NCI-H23
LOX IMVI = system: LOX IMVI
MOLT-4 = system: MOLT-4
K562 = system: K562
UACC-62 = system: UACC-62
CCRF-CEM = system: CCRF-CEM
RPMI-8226 = system: RPMI-8226
SR = system: SR
Malme-3M = system: Malme-3M
PC-3 = system: PC-3

NC(=S)N/N=C1\NC(=O)/C(=C/c2ccc3c(c2)OCO3)S1 was tested, and the GI50 (SNB-19) was 18 µM (inactive), the GI50 (HCT-15) was 26.7 µM and the GI50 (786-0) was 33.9 µM (inactive). For the same compound, the GI50 (CAKI-1) was 25.3 µM (inactive), the GI50 (NCI-H460) was 30.8 µM (inactive) and the GI50 (MDA-MB-435) was 27.1 µM (inactive). The GI50 (SF-295) was 36.5 µM (inactive), the GI50 (SK-MEL-2) was 27.2 µM (inactive) and the GI50 (IGROV-1) was 17.1 µM (inactive). For the same compound, the GI50 (ACHN) was 32.1 µM (inactive), the GI50 (MCF7) was 32.7 µM (inactive) and the GI50 (OVCAR-3) was 19.2 µM (inactive). For the same compound, the GI50 (SK-MEL-28) was 24 µM (inactive), the GI50 (T47D) was 19.3 µM (inactive) and the GI50 (HL-60) was 20.6 µM (inactive). The GI50 (TK-10) was 40.8 µM (inactive), the GI50 (UO-31) was 30.1 µM (inactive) and the GI50 (NCI-H226) was 23.5 µM (inactive). For the same compound, the GI50 (OVCAR-5) was 24.2 µM (inactive), the GI50 (BT-549) was 25.1 µM (inactive) and the GI50 (KM12) was 20.9 µM (inactive). The GI50 (SW-620) was 31.8 µM (inactive), the GI50 (HT-29) was 28.6 µM (inactive) and the GI50 (HOP-62) was 20.9 µM (inactive). The GI50 (SN12C) was 36.7 µM (inactive), the GI50 (A549) was 30.6 µM (inactive) and the GI50 (HOP-92) was 21.5 µM (inactive). The GI50 (SNB-75) was 14.3 µM (inactive), the GI50 (NCI/ADR-RES) was 27.8 µM (inactive) and the GI50 (M14) was 24.5 µM (inactive). For the same compound, the GI50 (HCC 2998) was 33.7 µM (inactive), the GI50 (HCT-116) was 29.1 µM (inactive) and the GI50 (OVCAR-8) was 24.8 µM (inactive). The GI50 (SF-539) was 35.1 µM (inactive), the GI50 (EKVX) was 21.6 µM (inactive) and the GI50 (UACC-257) was 31.6 µM (inactive). For the same compound, the GI50 (MDA-MB-231) was 25.8 µM (inactive), the GI50 (OVCAR-4) was 24.3 µM (inactive) and the GI50 (RXF 393) was 21.1 µM (inactive). The GI50 (SK-MEL-5) was 16.3 µM (inactive), the GI50 (SF-268) was 31.7 µM (inactive) and the GI50 (A498) was 14.3 µM (inactive). For the same compound, the GI50 (MDA-N) was 27.5 µM (inactive), the GI50 (SK-OV-3) was 30 µM (inactive) and the GI50 (COLO 205) was 26.3 µM (inactive). For the same compound, the GI50 (DU-145) was 28.2 µM (inactive), the GI50 (U-251) was 22.6 µM (inactive) and the GI50 (NCI-H23) was 22.9 µM (inactive). The GI50 (LOX IMVI) was 28.3 µM (inactive) and the GI50 (MOLT-4) was 21.4 µM (inactive).
O=C1C(Cl)=C(OCCCl)C(=O)c2c(O)ccc(O)c21 was tested, and the GI50 (SNB-19) was 16.7 µM (inactive), the GI50 (HCT-15) was 2.53 µM and the GI50 (786-0) was 6.58 µM (inactive). For the same compound, the GI50 (CAKI-1) was 2.38 µM (inactive), the GI50 (NCI-H460) was 18.5 µM (inactive) and the GI50 (SF-295) was 17.5 µM (inactive). For the same compound, the GI50 (IGROV-1) was 7.13 µM (inactive), the GI50 (K562) was 0.267 µM (active) and the GI50 (ACHN) was 3.16 µM (inactive). For the same compound, the GI50 (MCF7) was 2.06 µM (inactive), the GI50 (OVCAR-3) was 2.96 µM (inactive) and the GI50 (UACC-62) was 3.88 µM (inactive). The GI50 (SK-MEL-28) was 4.06 µM (inactive), the GI50 (T47D) was 1.39 µM (inactive) and the GI50 (HL-60) was 0.0617 µM (active). For the same compound, the GI50 (TK-10) was 2.6 µM (inactive), the GI50 (UO-31) was 5.36 µM (inactive) and the GI50 (NCI-H226) was 17 µM (inactive). For the same compound, the GI50 (OVCAR-5) was 17.7 µM (inactive), the GI50 (BT-549) was 13.3 µM (inactive) and the GI50 (KM12) was 19.7 µM (inactive). The GI50 (SW-620) was 2.05 µM (inactive), the GI50 (CCRF-CEM) was 0.0813 µM (active) and the GI50 (HT-29) was 4.73 µM (inactive). For the same compound, the GI50 (HOP-62) was 16.7 µM (inactive), the GI50 (SN12C) was 14.8 µM (inactive) and the GI50 (A549) was 20 µM (inactive). For the same compound, the GI50 (HOP-92) was 1.57 µM (inactive), the GI50 (SNB-75) was 13 µM (inactive) and the GI50 (NCI/ADR-RES) was 15.2 µM (inactive). The GI50 (M14) was 1.88 µM (inactive), the GI50 (HCC 2998) was 18.5 µM (inactive) and the GI50 (HCT-116) was 0.755 µM (active). For the same compound, the GI50 (RPMI-8226) was 0.74 µM (active), the GI50 (OVCAR-8) was 13.9 µM (inactive) and the GI50 (SF-539) was 17.3 µM (inactive). The GI50 (EKVX) was 18.6 µM (inactive), the GI50 (UACC-257) was 2.59 µM (inactive) and the GI50 (MDA-MB-231) was 4.38 µM (inactive). The GI50 (OVCAR-4) was 2.77 µM (inactive), the GI50 (RXF 393) was 6.44 µM (inactive) and the GI50 (SK-MEL-5) was 2.75 µM (inactive). For the same compound, the GI50 (SF-268) was 5.47 µM (inactive), the GI50 (A498) was 20.5 µM (inactive) and the GI50 (MDA-N) was 2.91 µM (inactive). For the same compound, the GI50 (SK-OV-3) was 18.2 µM (inactive), the GI50 (COLO 205) was 1.61 µM (inactive) and the GI50 (SR) was 0.113 µM (active). The GI50 (DU-145) was 17.9 µM (inactive), the GI50 (U-251) was 14.3 µM (inactive) and the GI50 (NCI-H23) was 5.75 µM (inactive). For the same compound, the GI50 (Malme-3M) was 2.89 µM (inactive), the GI50 (LOX IMVI) was 4.32 µM (inactive) and the GI50 (MOLT-4) was 0.212 µM (active). For the same compound, the GI50 (PC-3) was 13.2 µM (inactive).
